Data published in US8409618B2, “Odor-reducing quinone compounds” (Kimberly-Clark Worldwide, Inc., priority 2002, dated 2013).

What was measured:
[1] = Redox potential (redox potentiometry); format: physicochemical; conditions: compared with hydrogen (set at 0)
Text: The ability of quinone compounds to accept electrons from another substance (i.e., be reduced) may be quantified using a technique known as redox potentiometry. Redox potentiometry is a technique that measures (in volts) the affinity of a substance for electrons—its electronegativity—compared with hydrogen (which is set at 0). Substances more strongly electronegative than (i.e., capable of oxidizing) hydrogen have positive redox potentials. Substances less electronegative than (i.e., capable of reducing) hydrogen have negative redox potentials. The greater the difference between the redox potentials of two substances (ΔE), the greater the vigor with which electrons will flow spontaneously from the less positive to the more positive (more electronegative) substance. As is well known in the art, redox potential may be measured using any of a variety of commercially available meters, such as an Oxidation Reduction Potential (ORP) tester commercially available from Hanna Instruments, Inc. of Woonsocket, R.I. The redox potential of the quinone compounds may, for instance, be less than about −50 millivolts (mV), in some embodiments less than about −150 mV, in some embodiments less than about −300 mV, and in some embodiments, less than about −500 mV. Although not always the case, the redox potential may vary based on the number and location of functional groups, such as sulfonic acid, on the quinone structure. For example, 2-sulfonic acid anthraquinone has a redox potential of −380 mV; 2,6-disulfonic acid anthraquinone has a redox potential of −325 mV; and 2,7-disulfonic acid anthraquinone has a redox potential of −313 mV. Likewise, 2-sulfonic acid naphthaquinone has a redox potential of −60 mV. The use of other functional groups may also have an affect on the ultimate redox potential of the compound. For example, Acid Blue 25, which also contains amino- and aramid functional groups, has a redox potential of −605 mV.

[2] = Urine odor and secondary odor panel ranking, dye powders in urine, 8 millimolar (Example 7); design: species or system human; conditions: for Secondary Odor Ranking: scale 1 to 5, 5 extremely unpleasant, individual panelists' scores; for Average Urine Odor Ranking (with statistical corrections), Avg. Score: ignoring statistical anomalies
Experimental: (§1) Qualitative odor reduction was also assessed against common odors, such as garlic and urine. Specifically, panelists assessed odorant-containing jars by carefully unscrewing, and then raising the lid of each jar in a controlled manner, such that the odor was not diluted by the ambient air. The jars were wrapped and coded to ensure that the sample identity was unknown.
The effectiveness of various dyes in reducing urine odor was compared. […] Human female urine was initially collected and pooled by a nurse on staff at Kimberly-Clark Corporation. The pooled urine was added to mason jars in 50-milliliter aliquots using an automated pipette aid. Powders of the aforementioned dyes (commercially available from Sigma-Aldrich Chemical Co., Inc. of St. Louis, Mo. and Noveon Hilton Davis, Inc. of Cincinnati, Ohio) were weighed and placed into the mason jars containing 50 milliliters of urine so that the final concentration of the dye powder was 8 millimolar (equivalent to 0.5 wt. %). The mason jars were placed in an incubator overnight at 37° C.
To aid in the assessment of the dyes, the mason jars were divided into two groups for a morning assessment, and the best of both groups were compared in an afternoon assessment (after a total of 24 hours). In addition to ranking the jars from least to most malodorous (on a scale from 1 to 7, with 7 being the most malodors), panelists were also asked to judge whether there were secondary (non-urine) odors present and, if so, the extent that the secondary odors were unpleasant (on a scale from 1 to 5, with 5 being extremely unpleasant).
In this assessment, panelists were given instructions to rank the least malodorous jar as “1” and the most malodorous jar as “10,” remaining free to rank the other jars between 2-9.

[3] = Urine odor panel ranking, dye powders in urine, 8 millimolar (Example 5); design: species or system human; conditions: 8 millimolar dye in urine; for urine malodor reduction (panel): 6 and 24 hours
Experimental: as §1, with “unknown. The effectiveness of various quinone dyes in reducing urine odor was compared. Human female urine was initially collected and pooled by a nurse on staff at Kimberly-Clark Corporation.” for “unknown.”

[4] = Urine odor panel ranking, dye-coated Poise pads without SN-AK (Example 8); design: species or system human
Experimental: as §1
Specifically, Acid Green 25, Acid Green 41, Acid Blue 129, and D&C Green No. 5 were tested. Powders of the aforementioned dyes (commercially available from Sigma-Aldrich Chemical Co., Inc. of St. Louis, Mo. and Noveon Hilton Davis, Inc. of Cincinnati, Ohio) were dissolved in water so that the concentration of the dye was 8 millimolar (equivalent to 0.5 wt. %). Samples of tissue wrap were created by cutting 9″×6″ sheets from a roll of tissue (1 ply white cellulose wrap sheet having a basis weight of 16.6 grams per square meter) were weighed, oven-dried overnight at 90° C., and weighed again the next day to calculate the amount of residual water in each wrap. The wraps were then dipped into a respective dye solution and hung to dry overnight, after which they were weighed again. The treated wraps were then rinsed in deionized water to remove any unbound dye and hung again to dry overnight. After weighing the treated wraps, they were once again oven-dried overnight at 90° C. and weighed to determine the dry add-on percentages ([…]). The add-on percentage for each sample was approximately 1.6 wt. %.
Two different sets of Poise® pads (commercially available from Kimberly-Clark Corp.) were tested. The first set of dye-coated tissue wraps (without SN-AK) was inserted around the pledgette area of the Poise® pads. The Poise® pads were cut open and the tissue wrap surrounding the pledgette carefully removed and replaced with dye-coated tissue wrap. The second set of dye-coated tissue wraps (without SN-AK) used dye coatings on the top of the pad (rather than inside). These pads were constructed by spreading the solution over the top of each pad. To prevent the superabsorbent area of the pad from soaking up the solution, the pads were cut open prior to coating and a layer of plastic wrap was placed between the top layer of the pad and the superabsorbent core. A pad that was cut open, but coated only with water on top, was used as a control. All pads were dried at room temperature overnight before placing them in mason jars for testing. For control purposes, a Poise® pad was also tested that was cut open, but retained its original tissue wrap. In addition, Serenity® Night & Day™ incontinence pads, which are commercially available from SCA Incontinence Care of Eddystone, Pa. and said to employ OdaSorb Plus™ to reduce odor, were also used for comparison.
Fresh human female urine was then pooled, and 50-milliliter aliquots were applied to the pads using a pipette. The mason jars were placed in a 37° C. incubator overnight for assessment the next day. […] Panelists were again asked to rank any secondary odors for unpleasantness on a scale of 1-5.

[5] = Urine odor panel ranking, dye powders in urine, 1.6 millimolar (Example 6); design: species or system human; conditions: 1.6 millimolar dye in urine, 24 hours, 37° C.
Experimental: as §1
The effectiveness of various dyes in reducing urine odor was compared. The dyes chosen for this example were powders of Acid Blue 25, Acid Blue 45, Acid Blue 129, FD&C Blue No. 1 (a triarylmethane dye), Acid Green 27, Acid Green 41, and Mordant Violet 5 (Alizarin Violet 3R) (commercially available from Sigma-Aldrich Chemical Co., Inc. of St. Louis, Mo.), as well as D&C Green No. 5 (commercially available from Noveon Hilton Davis, Inc. of Cincinnati, Ohio). Human female urine was initially collected and pooled by a nurse on staff at Kimberly-Clark Corporation. […] Powders of the aforementioned dyes were weighed and placed into the mason jars containing 50 milliliters of urine so that the final concentration of the dye powder was 1.6 millimolar (equivalent to 0.1 wt. %). […] A score of “10” was assigned to the most malodorous jar and a score of “1” was assigned to the least malodorous jar.

[6] = After 24 Hours, top performers of both groupings, 1 least, 10 most malodorous
[7] = First Grouping, morning assessment, 8 millimolar, 7 most malodorous
[8] = First Grouping, scale 1 to 7, 7 most malodorous
[9] = after 24 hours, top performers, 1 least, 10 most malodorous
[10] = After 6 Hours, 10 most, 1 least malodorous
[11] = After 24 Hours, 10 most, 1 least malodorous
[12] = Second Grouping, morning assessment, 8 millimolar, higher = more malodorous
[13] = 1st set (tissue-wrap coating), After 30 Hours

SMILES: O=C1C=C(S(=O)(=O)O)C(=O)c2ccccc21 [2-sulfonic acid naphthaquinone]
- redox potential [1]: −60 mV

SMILES: Nc1c(S(=O)(=O)[O-])cc(Nc2ccccc2)c2c1C(=O)c1ccccc1C2=O.[Na+] [Acid Blue 25]
- Urine Odor Ranking (number of panelists): ranking 4 [2, 6]: 1 number of panelists
- Urine Odor Ranking (number of panelists): ranking 7 [2, 6]: 1 number of panelists
- Urine Odor Ranking (number of panelists): ranking 9 [2, 6]: 2 number of panelists
- Urine Odor Ranking (number of panelists): ranking 10 [2, 6]: 1 number of panelists
- Secondary Odor Ranking ([2]; After 24 Hours): 4
- Urine Odor Ranking (number of panelists): ranking 1 [2, 7]: 1 number of panelists
- Urine Odor Ranking (number of panelists): ranking 2 [2, 7]: 1 number of panelists
- Urine Odor Ranking (number of panelists): ranking 3 [2, 7]: 1 number of panelists
- Urine Odor Ranking (number of panelists): ranking 4 [2, 7]: 1 number of panelists
- Urine Odor Ranking (number of panelists): ranking 5 [2, 7]: 1 number of panelists
- Secondary Odor Ranking ([2]; First Grouping): 2
- Average Urine Odor Ranking, Avg. Score [2, 8]: 3.0
- Average Urine Odor Ranking, Avg. Score [2, 9]: 6.8
- Average Urine Odor Ranking (with statistical corrections), Avg. Score ([2]; after 24 hours, top performers): 8.8
- urine odor reduction (panel) ([2]; first grouping): functioned effectively to reduce odor
- redox potential [1]: −605 mV

SMILES: O=C1c2ccc(S(=O)(=O)O)cc2C(=O)c2ccc(S(=O)(=O)O)cc21 [2,6-disulfonic acid anthraquinone]
- redox potential [1]: −325 mV

SMILES: Cc1cc(C)c(Nc2cc(S(=O)(=O)[O-])c(N)c3c2C(=O)c2ccccc2C3=O)c(C)c1.[Na+] [Acid Blue 129]
- urine malodor reduction (panel) [3]: functioned effectively in reducing urine malodor
- Avg. Ranking (odor) [3, 10]: 1.6
- Ranking (number of panelists): ranking 1 [3, 10]: 4 number of panelists
- Ranking (number of panelists): ranking 4 [3, 10]: 1 number of panelists
- Avg. Ranking (odor) [3, 11]: 1.3
- Ranking (number of panelists): ranking 1 [3, 11]: 5 number of panelists
- Ranking (number of panelists): ranking 3 [3, 11]: 1 number of panelists
- Urine Odor Ranking (number of panelists): ranking 1 [2, 6]: 1 number of panelists
- Urine Odor Ranking (number of panelists): ranking 3 [2, 6]: 1 number of panelists
- Urine Odor Ranking (number of panelists): ranking 4 [2, 6]: 1 number of panelists
- Urine Odor Ranking (number of panelists): ranking 5 [2, 6]: 1 number of panelists
- Urine Odor Ranking (number of panelists): ranking 6 [2, 6]: 1 number of panelists
- Average Urine Odor Ranking, Avg. Score ([2]; Second Grouping): 1.8
- Urine Odor Ranking (number of panelists): ranking 1 [2, 12]: 3 number of panelists
- Urine Odor Ranking (number of panelists): ranking 3 [2, 12]: 2 number of panelists
- urine odor reduction (panel) ([2]; after 24 hours, top performers of both groupings): achieved the best odor reduction
- Average Urine Odor Ranking, Avg. Score [2, 9]: 3.8
- Average Urine Odor Ranking (with statistical corrections), Avg. Score ([2]; after 24 hours, top performers): 3.8
- Urine Odor Ranking (number of panelists): ranking 1 [4, 13]: 1 number of panelists
- Urine Odor Ranking (number of panelists): ranking 3 [4, 13]: 1 number of panelists
- Urine Odor Ranking (number of panelists): ranking 4 [4, 13]: 2 number of panelists
- Average Urine Odor Ranking, Avg. Score ([4]; 1st set (tissue-wrap coating), final pooled assessment): 3.00
- urine odor reduction (panel), assessment within set ([4]; first set of pads (dye-coated tissue wrap around pledgette), overnight 37° C.): performed best for the first set of pads
- overall urine odor control performance (panel) ([4]; tissue-wrap coating, final pooled assessment): performed very well

SMILES: O=C1c2ccc(S(=O)(=O)O)cc2C(=O)c2cc(S(=O)(=O)O)ccc21 [2,7-disulfonic acid anthraquinone]
- redox potential [1]: −313 mV

SMILES: Cc1ccc(Nc2ccc(Nc3ccc(C)cc3S(=O)(=O)[O-])c3c2C(=O)c2ccccc2C3=O)c(S(=O)(=O)[O-])c1.[Na+].[Na+] [D&C Green No. 5]
- urine malodor reduction (panel) [3]: functioned effectively in reducing urine malodor
- Avg. Ranking (odor) [3, 10]: 3.0
- Ranking (number of panelists): ranking 1 [3, 10]: 1 number of panelists
- Ranking (number of panelists): ranking 3 [3, 10]: 3 number of panelists
- Ranking (number of panelists): ranking 5 [3, 10]: 1 number of panelists
- Avg. Ranking (odor) [3, 11]: 5.2
- Ranking (number of panelists): ranking 4 [3, 11]: 3 number of panelists
- Ranking (number of panelists): ranking 5 [3, 11]: 1 number of panelists
- Ranking (number of panelists): ranking 7 [3, 11]: 2 number of panelists
- Urine Odor Ranking (number of panelists): ranking 2 [2, 6]: 1 number of panelists
- Urine Odor Ranking (number of panelists): ranking 4 [2, 6]: 1 number of panelists
- Urine Odor Ranking (number of panelists): ranking 7 [2, 6]: 2 number of panelists
- Urine Odor Ranking (number of panelists): ranking 10 [2, 6]: 1 number of panelists
- Secondary Odor Ranking ([2]; After 24 Hours): 4
- urine odor reduction (panel) ([2]; Second Grouping): did not perform as well compared to the other dyes
- Urine Odor Ranking (number of panelists): ranking 4 [2, 12]: 3 number of panelists
- Urine Odor Ranking (number of panelists): ranking 5 [2, 12]: 2 number of panelists
- Secondary Odor Ranking ([2]; Second Grouping): 4
- Average Urine Odor Ranking, Avg. Score [2, 9]: 6.0
- Average Urine Odor Ranking (with statistical corrections), Avg. Score ([2]; after 24 hours, top performers): 7.0

SMILES: O=C1c2ccccc2C(=O)c2cc(S(=O)(=O)O)ccc21 [2-sulfonic acid anthraquinone]
- redox potential [1]: −380 mV

SMILES: Cc1ccc(Nc2cccc3c2C(=O)c2cccc(Nc4ccc(C)cc4S(=O)(=O)[O-])c2C3=O)c(S(=O)(=O)[O-])c1.[Na+].[Na+]
- Urine Odor Ranking (number of panelists): ranking 4 [2, 7]: 1 number of panelists
- Urine Odor Ranking (number of panelists): ranking 6 [2, 7]: 3 number of panelists
- Urine Odor Ranking (number of panelists): ranking 7 [2, 7]: 1 number of panelists
- Secondary Odor Ranking ([2]; First Grouping): 1
- Average Urine Odor Ranking, Avg. Score [2, 8]: 5.8
- urine odor reduction (panel) [5]: did not perform as well in reducing odor as D&C Green No. 5
